Source: ChEMBL document CHEMBL1201862, “PubChem BioAssay data set” (2004)
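Test compounds were applied to cells in 96-well plates for 48 hours at 5 doses. Abbreviation: GI50, concentration required for 50% inhibition of growth.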 Calls of active or inactive are those of the source. Cut-off read from the data, not from the text of the source: active = GI50 up to about 1.1 µM and inactive = higher.

What was measured:
Test in all cases: DTP human tumour cell line panel, 48 h
HCC 2998 = test system: HCC 2998
HOP-18 = test system: HOP-18
DMS-273 = test system: DMS-273
HT-29 = test system: HT-29
DLD-1 = test system: DLD-1
EKVX = test system: EKVX
NCI-H460 = test system: NCI-H460
LXFL 529 = test system: LXFL 529
SF-268 = test system: SF-268
NCI-H23 = test system: NCI-H23
ACHN = test system: ACHN
KM-20L2 = test system: KM-20L2
NCI-H522 = test system: NCI-H522
A498 = test system: A498
OVCAR-8 = test system: OVCAR-8
COLO 205 = test system: COLO 205
Malme-3M = test system: Malme-3M
SK-OV-3 = test system: SK-OV-3
HOP-92 = test system: HOP-92
RXF 631 = test system: RXF 631
OVCAR-5 = test system: OVCAR-5
CAKI-1 = test system: CAKI-1
A549 = test system: A549
LOX IMVI = test system: LOX IMVI
M14 = test system: M14
KM12 = test system: KM12
TK-10 = test system: TK-10
HCT-15 = test system: HCT-15
SW-620 = test system: SW-620
OVCAR-3 = test system: OVCAR-3
SNB-75 = test system: SNB-75
HL-60 = test system: HL-60
NCI-H226 = test system: NCI-H226
UACC-257 = test system: UACC-257
MOLT-4 = test system: MOLT-4
UACC-62 = test system: UACC-62
SN12C = test system: SN12C
OVCAR-4 = test system: OVCAR-4
SNB-19 = test system: SNB-19
SK-MEL-5 = test system: SK-MEL-5
RXF 393 = test system: RXF 393
786-0 = test system: 786-0
XF498 = test system: XF498
U-251 = test system: U-251
UO-31 = test system: UO-31
SK-MEL-2 = test system: SK-MEL-2
SK-MEL-28 = test system: SK-MEL-28
SF-295 = test system: SF-295
RPMI-8226 = test system: RPMI-8226
M19-MEL = test system: M19-MEL
SF-539 = test system: SF-539
IGROV-1 = test system: IGROV-1
HOP-62 = test system: HOP-62
DMS-114 = test system: DMS-114
K562 = test system: K562
CCRF-CEM = test system: CCRF-CEM
SNB-78 = test system: SNB-78
HCT-116 = test system: HCT-116

Measured: GI50

Cc1ccc(S(=O)(=O)NC(C)C(=O)O)cc1 (stereo unspecified)
> 100 µM: HCT-15
inactive: HCC 2998 > 100 µM | HOP-18 > 100 µM | DMS-273 > 100 µM | HT-29 > 100 µM | DLD-1 > 100 µM | EKVX > 100 µM | NCI-H460 > 100 µM | LXFL 529 > 100 µM | SF-268 > 100 µM | NCI-H23 > 100 µM | ACHN > 100 µM | KM-20L2 > 100 µM | NCI-H522 > 100 µM | A498 > 100 µM | OVCAR-8 > 100 µM | COLO 205 > 100 µM | Malme-3M > 100 µM | SK-OV-3 > 100 µM | HOP-92 > 100 µM | RXF 631 > 100 µM | OVCAR-5 > 100 µM | CAKI-1 > 100 µM | A549 > 100 µM | LOX IMVI > 100 µM | M14 > 100 µM | KM12 > 100 µM | TK-10 > 100 µM | SW-620 > 100 µM | OVCAR-3 > 100 µM | SNB-75 > 100 µM | HL-60 > 100 µM | NCI-H226 > 100 µM | UACC-257 > 100 µM | MOLT-4 > 100 µM | UACC-62 > 100 µM | SN12C > 100 µM | OVCAR-4 > 100 µM | SNB-19 > 100 µM | SK-MEL-5 > 100 µM | RXF 393 > 100 µM | 786-0 > 100 µM | XF498 > 100 µM | U-251 > 100 µM | UO-31 > 100 µM | SK-MEL-2 > 100 µM | SK-MEL-28 > 100 µM | SF-295 > 100 µM | RPMI-8226 > 100 µM | M19-MEL > 100 µM | SF-539 > 100 µM | IGROV-1 > 100 µM

Nc1cc[nH]c(=O)n1
> 100 µM: HCT-15
inactive: HOP-18 > 100 µM | DMS-273 > 100 µM | HT-29 > 100 µM | DLD-1 > 100 µM | EKVX > 100 µM | NCI-H460 > 100 µM | LXFL 529 > 100 µM | SF-268 > 100 µM | ACHN > 100 µM | HOP-62 > 100 µM | KM-20L2 > 100 µM | NCI-H522 > 100 µM | A498 > 100 µM | OVCAR-8 > 100 µM | COLO 205 > 100 µM | Malme-3M > 100 µM | SK-OV-3 > 100 µM | HOP-92 > 100 µM | RXF 631 > 100 µM | OVCAR-5 > 100 µM | CAKI-1 > 100 µM | DMS-114 > 100 µM | A549 > 100 µM | LOX IMVI > 100 µM | M14 > 100 µM | KM12 > 100 µM | K562 > 100 µM | TK-10 > 100 µM | SW-620 > 100 µM | CCRF-CEM > 100 µM | OVCAR-3 > 100 µM | SNB-75 > 100 µM | HL-60 > 100 µM | SNB-78 > 100 µM | HCT-116 > 100 µM | NCI-H226 > 100 µM | UACC-257 > 100 µM | UACC-62 > 100 µM | SN12C > 100 µM | OVCAR-4 > 100 µM | SK-MEL-5 > 100 µM | RXF 393 > 100 µM | 786-0 > 100 µM | XF498 > 100 µM | U-251 > 100 µM | UO-31 > 100 µM | SK-MEL-2 > 100 µM | SK-MEL-28 > 100 µM | SF-295 > 100 µM | RPMI-8226 > 100 µM | M19-MEL > 100 µM | SF-539 > 100 µM | IGROV-1 > 100 µM
